The target in this assay is human serum albumin (HSA) (Homo sapiens, UniProt P02768). Kind of assay: tryptophan fluorescence quenching. The assay is classed as binding.
human serum albumin (HSA), sequence (P02768 25-609): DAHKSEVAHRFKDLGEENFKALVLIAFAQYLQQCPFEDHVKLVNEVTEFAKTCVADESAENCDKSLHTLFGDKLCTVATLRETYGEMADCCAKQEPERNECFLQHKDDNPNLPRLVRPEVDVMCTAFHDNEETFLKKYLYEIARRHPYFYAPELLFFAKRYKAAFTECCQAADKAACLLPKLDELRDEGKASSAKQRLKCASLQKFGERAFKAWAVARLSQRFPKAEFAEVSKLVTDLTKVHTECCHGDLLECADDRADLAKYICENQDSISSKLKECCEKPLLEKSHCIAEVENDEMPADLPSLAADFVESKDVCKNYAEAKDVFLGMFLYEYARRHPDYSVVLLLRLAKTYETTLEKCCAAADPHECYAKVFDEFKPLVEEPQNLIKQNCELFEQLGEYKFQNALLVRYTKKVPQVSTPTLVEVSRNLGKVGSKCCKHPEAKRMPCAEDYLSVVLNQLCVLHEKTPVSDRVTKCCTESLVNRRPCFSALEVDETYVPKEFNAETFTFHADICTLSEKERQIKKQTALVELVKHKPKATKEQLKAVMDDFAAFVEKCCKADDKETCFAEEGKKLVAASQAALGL

For orientation: Kd means a measure of binding affinity in units of concentration. A lower Kd goes with a tighter complex. In turn, `C[C@]12CC[C@H]3[C@@H](CCC4=CC(=O)CC[C@@]43C)[C@@H]1CC[C@@H]2O` [testosterone] registered a Kd of 363 ± 83 µM.

The values above are taken from paper PMC6371759 (Chemical Science, 2018).
